Values belong to the molecule of their own block, whether it stands above or below them. Activity calls are given as the source filed them. The rule behind the calls is not given here.
Experiments:
[1] = test system: N2a; test: Cytotoxicity against mouse Neuro2a cells assessed as reduction in cell viability at 50 uM incubated for 48 hrs by Alamar blue assay; format: toxicity, cell-based
[2] = Metal chelating activity assessed as compound-Fe(III) complex formation by measuring hyperchromic shift incubated for 30 mins by UV-Visible spectrophotometric analysis
[3] = Metal chelating activity assessed as compound-Zn(II) complex formation by measuring hyperchromic shift incubated for 30 mins by UV-Visible spectrophotometric analysis
[4] = Metal chelating activity assessed as compound-Cu(II) complex formation by measuring hyperchromic shift incubated for 30 mins by UV-Visible spectrophotometric analysis
[5] = Competitive binding affinity to Cu(II) assessed as metal chelating activity by measuring compound-Cu(II) complex formation incubated for 30 mins in the presence of NiCl2 by UV-vis spectrophotometric analysis
[6] = Competitive binding affinity to Cu(II) assessed as metal chelating activity by measuring compound-Cu(II) complex formation incubated for 30 mins in the presence of FeCl2 by UV-vis spectrophotometric analysis
[7] = Competitive binding affinity to Zn(II) assessed as metal chelating activity by measuring compound-Zn(II) complex formation incubated for 30 mins in the presence of FeCl2 by UV-vis spectrophotometric analysis
[8] = biological target: T1, Amyloid-beta precursor protein (Homo sapiens, UniProt P05067); test: Inhibition of Cu(II)-induced amyloid-beta (unknown origin) aggregation assessed as disaggregation at 10 uM preincubated with CuSO4.5H2O for 30 mins followed by compound addition and measured after 24 hrs by ThT fluorescence assay
[9] = Competitive binding affinity to Cu(II) assessed as metal chelating activity by measuring compound-Cu(II) complex formation incubated for 30 mins in the presence of MnCl2 by UV-vis spectrophotometric analysis
[10] = Competitive binding affinity to Cu(II) assessed as metal chelating activity by measuring compound-Cu(II) complex formation incubated for 30 mins in the presence of MgSO4.7H2O by UV-vis spectrophotometric analysis
[11] = Competitive binding affinity to Cu(II) assessed as metal chelating activity by measuring compound-Cu(II) complex formation incubated for 30 mins in the presence of ZnSO4.7H2O by UV-vis spectrophotometric analysis
[12] = Competitive binding affinity to Zn(II) assessed as metal chelating activity by measuring compound-Zn(II) complex formation incubated for 30 mins in the presence of MnCl2 by UV-vis spectrophotometric analysis
[13] = Metal chelating activity assessed as compound-Cu(II) complex formation by measuring hyperchromic shift at 1:1 molar ratio incubated for 30 mins by UV-Visible spectrophotometric analysis
[14] = Competitive binding affinity to Zn(II) assessed as metal chelating activity by measuring compound-Zn(II) complex formation incubated for 30 mins in the presence of copper by UV-vis spectrophotometric analysis
[15] = Competitive binding affinity to Zn(II) assessed as metal chelating activity by measuring compound-Zn(II) complex formation incubated for 30 mins in the presence of MgSO4.7H2O by UV-vis spectrophotometric analysis
[16] = biological target: T1, Amyloid-beta precursor protein; test: Inhibition of amyloid-beta (unknown origin) aggregation at 1:10 compound:amyloidbeta ratio incubated for 24 hrs by ThT fluorescence assay
[17] = Competitive binding affinity to Zn(II) assessed as metal chelating activity by measuring compound-Zn(II) complex formation incubated for 30 mins in the presence of NiCl2 by UV-vis spectrophotometric analysis
[18] = Antioxidant activity assessed as DPPH radical scavenging activity at 10 uM incubated under dark condition for 30 mins by absorbance based plate reader analysis; format: functional
[19] = biological target: T1, Amyloid-beta precursor protein; test: Inhibition of amyloid-beta (unknown origin) aggregation at 25 uM at 1:10 compound:amyloidbeta ratio incubated for 24 hrs by ThT fluorescence assay
[20] = Competitive binding affinity to Cu(II) assessed as metal chelating activity by measuring compound-Cu(II) complex formation incubated for 30 mins in the presence of CaCl2 by UV-vis spectrophotometric analysis
[21] = Competitive binding affinity to Zn(II) assessed as metal chelating activity by measuring compound-Zn(II) complex formation incubated for 30 mins in the presence of CaCl2 by UV-vis spectrophotometric analysis
[22] = Metal chelating activity assessed as compound-Fe(III) complex formation by measuring hyperchromic shift at 1:1 molar ratio incubated for 30 mins by UV-Visible spectrophotometric analysis
[23] = Competitive binding affinity to Fe(III) assessed as metal chelating activity by measuring compound-Fe(III) complex formation incubated for 30 mins in the presence of MgSO4.7H2O by UV-Visible spectrophotometric analysis
[24] = biological target: T1, Amyloid-beta precursor protein; test: Binding affinity to amyloid-beta (unknown origin) in Tris-HCL buffer assessed as conformational change at 10 uM at 1:1 molar ratio incubated for 24 hrs by circular dichroism analysis
[25] = Competitive binding affinity to Fe(III) assessed as metal chelating activity by measuring compound-Fe(III) complex formation incubated for 30 mins in the presence of CaCl2 by UV-Visible spectrophotometric analysis
[26] = Competitive binding affinity to Fe(III) assessed as metal chelating activity by measuring compound-Fe(III) complex formation incubated for 30 mins in the presence of zinc by UV-Visible spectrophotometric analysis
[27] = Competitive binding affinity to Fe(III) assessed as metal chelating activity by measuring compound-Fe(III) complex formation incubated for 30 mins in the presence of MnCl2 by UV-Visible spectrophotometric analysis
[28] = Metal chelating activity assessed as compound-Zn(II) complex formation by measuring hyperchromic shift at 1:1 molar ratio incubated for 30 mins by UV-Visible spectrophotometric analysis
[29] = Competitive binding affinity to Fe(III) assessed as metal chelating activity by measuring compound-Fe(III) complex formation incubated for 30 mins in the presence of FeCl2 by UV-Visible spectrophotometric analysis
[30] = Competitive binding affinity to Fe(III) assessed as metal chelating activity by measuring compound-Fe(III) complex formation incubated for 30 mins in the presence of NiCl2 by UV-Visible spectrophotometric analysis
[31] = Competitive binding affinity to Fe(III) assessed as metal chelating activity by measuring compound-Fe(III) complex formation incubated for 30 mins in the presence of copper by UV-Visible spectrophotometric analysis

T1 sequence (P05067 whole entry): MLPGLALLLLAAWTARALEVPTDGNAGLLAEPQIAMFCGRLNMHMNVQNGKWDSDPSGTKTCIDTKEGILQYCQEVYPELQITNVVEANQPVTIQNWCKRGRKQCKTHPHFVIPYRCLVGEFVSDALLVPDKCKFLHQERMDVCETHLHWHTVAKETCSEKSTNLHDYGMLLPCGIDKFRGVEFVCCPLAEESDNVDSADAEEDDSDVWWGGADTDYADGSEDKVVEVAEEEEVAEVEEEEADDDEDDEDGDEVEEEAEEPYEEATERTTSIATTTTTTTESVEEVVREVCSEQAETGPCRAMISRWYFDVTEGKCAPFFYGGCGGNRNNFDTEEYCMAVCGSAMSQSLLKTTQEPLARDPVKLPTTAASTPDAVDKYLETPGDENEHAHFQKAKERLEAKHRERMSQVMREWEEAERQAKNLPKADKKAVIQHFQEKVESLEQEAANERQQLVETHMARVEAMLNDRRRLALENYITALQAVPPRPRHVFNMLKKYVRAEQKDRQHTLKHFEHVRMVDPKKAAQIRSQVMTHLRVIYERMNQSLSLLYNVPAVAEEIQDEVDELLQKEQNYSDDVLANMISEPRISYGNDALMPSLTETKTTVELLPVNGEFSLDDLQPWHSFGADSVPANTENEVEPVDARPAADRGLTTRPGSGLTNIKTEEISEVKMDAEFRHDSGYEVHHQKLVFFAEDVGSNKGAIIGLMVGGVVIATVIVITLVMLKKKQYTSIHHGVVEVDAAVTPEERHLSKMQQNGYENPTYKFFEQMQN

Compound: CC(C)(C)OC(=O)N[C@H](CNc1c(N[C@@H](CS)C(=O)O)c(=O)c1=O)Cc1ccccc1
Activity [1]: Non-Toxic

Activity [2]: Active | Activity [3]: Active | Activity [4]: Active
Compound: COc1c(NC[C@H](Cc2ccccc2)NC(=O)OC(C)(C)C)c(=O)c1=O

Compound: CC(C)(C)OC(=O)N[C@H](CNc1c(N[C@@H](Cc2c[nH]c3ccccc23)C(=O)O)c(=O)c1=O)Cc1ccccc1
Activity [1]: Non-Toxic

Compound: CC[C@@H](C)[C@H](Nc1c(NC[C@H](Cc2ccccc2)NC(=O)OC(C)(C)C)c(=O)c1=O)C(=O)O
Activity [1]: Non-Toxic

Compound: CC(C)(C)OC(=O)N[C@H](CNc1c(N[C@@H](Cc2ccc(O)cc2)C(=O)O)c(=O)c1=O)Cc1ccccc1
Activity [1]: Non-Toxic

Compound: CC(C)(C)OC(=O)N[C@H](CNc1c(N[C@@H](CC(=O)O)C(=O)O)c(=O)c1=O)Cc1ccccc1
Activity [1]: Non-Toxic

Activity [5]: inactive | Activity [6]: inactive | Activity [7]: Active | inhibition [8]: Active | Activity [9]: inactive | Activity [10]: inactive | Activity [11]: inactive | Activity [12]: Active | Activity [13]: inactive | Activity [14]: Active | Activity [15]: Active | IC50 [16]: 7.71 µM | Activity [17]: Active | inhibition [19]: Active | Activity [20]: inactive | Activity [21]: Active
Compound: CC(C)[C@H](Nc1c(NC[C@H](Cc2ccccc2)NC(=O)OC(C)(C)C)c(=O)c1=O)C(=O)O
Activity [1]: Non-Toxic | Activity [18]: Active

Compound: CC(C)(C)OC(=O)N[C@H](CNc1c(NCC(=O)O)c(=O)c1=O)Cc1ccccc1
Activity [1]: Non-Toxic

Compound: C[C@H](Nc1c(NC[C@H](Cc2ccccc2)NC(=O)OC(C)(C)C)c(=O)c1=O)C(=O)O
Activity [1]: Non-Toxic

IC50 [16]: 17.5 µM | inhibition [19]: Active
Compound: CC(C)(C)OC(=O)N[C@H](CNc1c(N[C@@H](CC(N)=O)C(=O)O)c(=O)c1=O)Cc1ccccc1
Activity [1]: Non-Toxic

Compound: CC(C)(C)OC(=O)N[C@H](CNc1c(N[C@@H](Cc2c[nH]cn2)C(=O)O)c(=O)c1=O)Cc1ccccc1
Activity [1]: Non-Toxic

Activity [2]: inactive | Activity [3]: inactive | Activity [4]: inactive
Compound: CC(C)(C)OC(=O)N[C@H](CN)Cc1ccccc1

Activity [5]: Active | Activity [6]: Active | Activity [7]: Active | inhibition [8]: Active | Activity [22]: Active | Activity [9]: Active | Activity [10]: Active | Activity [11]: Active | Activity [12]: Active | Activity [13]: Active | Activity [14]: Active | Activity [15]: Active | IC50 [16]: 8.08 µM | Activity [23]: Active | Activity [24]: Active | Activity [25]: Active | Activity [17]: Active | Activity [26]: Active | Activity [27]: Active | Activity [28]: Active | Activity [29]: Active | inhibition [19]: Active | Activity [30]: Active | Activity [20]: Active | Activity [31]: Active | Activity [21]: Active
Compound: C[C@H](O)[C@H](Nc1c(NC[C@H](Cc2ccccc2)NC(=O)OC(C)(C)C)c(=O)c1=O)C(=O)O
Activity [1]: Non-Toxic | Activity [18]: Active

Compound: CC(C)(C)OC(=O)N[C@H](CNc1c(N2CCC[C@H]2C(=O)O)c(=O)c1=O)Cc1ccccc1
Activity [1]: Non-Toxic

Compound: CC(C)(C)OC(=O)N[C@H](CNc1c(N[C@@H](CCCCN)C(=O)O)c(=O)c1=O)Cc1ccccc1
Activity [1]: Non-Toxic

Activity [2]: Active | Activity [3]: Active | Activity [4]: Active
Compound: COc1c(OC)c(=O)c1=O

Compound: CC(C)C[C@H](Nc1c(NC[C@H](Cc2ccccc2)NC(=O)OC(C)(C)C)c(=O)c1=O)C(=O)O
Activity [1]: Non-Toxic

Compound: CC(C)(C)OC(=O)N[C@H](CNc1c(N[C@@H](CO)C(=O)O)c(=O)c1=O)Cc1ccccc1
Activity [1]: Non-Toxic

Compound: CC(C)(C)OC(=O)N[C@H](CNc1c(N[C@@H](CCC(N)=O)C(=O)O)c(=O)c1=O)Cc1ccccc1
Activity [1]: Non-Toxic

Compound: CC(C)(C)OC(=O)N[C@H](CNc1c(N[C@@H](CCC(=O)O)C(=O)O)c(=O)c1=O)Cc1ccccc1
Activity [1]: Non-Toxic

Compound: CC(C)(C)OC(=O)N[C@H](CNc1c(N[C@@H](CCCNC(=N)N)C(=O)O)c(=O)c1=O)Cc1ccccc1
Activity [1]: Non-Toxic

IC50 [16]: 14.6 µM | inhibition [19]: Active
Compound: CC(C)(C)OC(=O)N[C@H](CNc1c(N[C@@H](Cc2ccccc2)C(=O)O)c(=O)c1=O)Cc1ccccc1
Activity [1]: Non-Toxic

Compound: CSCC[C@H](Nc1c(NC[C@H](Cc2ccccc2)NC(=O)OC(C)(C)C)c(=O)c1=O)C(=O)O
Activity [1]: Non-Toxic

Source: ChEMBL document CHEMBL5356959, “Bifunctional backbone modified squaramide dipeptides as amyloid beta (Aβ) aggregation inhibitors” (Bioorg Med Chem, 2024)
